Measured values as given in publication PMC4807864 (The Journal of antibiotics, 2013).
Counter-ions that a name gives are not always drawn.

Target: T1, human PPTase (hPPTase) (Homo sapiens, UniProt Q9NRN7)
T1 sequence (Q9NRN7 1-309): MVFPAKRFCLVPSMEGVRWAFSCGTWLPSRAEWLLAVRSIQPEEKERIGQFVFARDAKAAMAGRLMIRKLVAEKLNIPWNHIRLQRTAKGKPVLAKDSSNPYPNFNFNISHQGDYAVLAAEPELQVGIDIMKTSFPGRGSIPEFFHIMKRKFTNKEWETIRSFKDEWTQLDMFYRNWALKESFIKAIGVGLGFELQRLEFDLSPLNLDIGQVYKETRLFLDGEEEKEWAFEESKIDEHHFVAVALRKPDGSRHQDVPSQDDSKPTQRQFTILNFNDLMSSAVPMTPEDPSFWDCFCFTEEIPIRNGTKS
Experiment: Fluorescence polarization phosphopantetheinylation assay
Assay type: biochemical
Conditions: not given

`NC(CO)C(=O)NNCc1ccc(O)c(O)c1O` (stereo not drawn) [benserazide HCl, benserazide] was tested. Which IC50 did it give?
Its IC50 is over 100 µM.

How did the IC50 turn out when `CC(C)(COP(=O)(O)OP(=O)(O)OC[C@H]1O[C@@H](n2cnc3c(N)ncnc32)[C@H](O)[C@@H]1OP(=O)(O)O)[C@@H](O)C(=O)NCCC(=O)NCCS` [coenzyme A] was run?
The IC50 was 14 ± 1 µM.

Which IC50 does the source give for `C[n+]1cc2c3c(ccc2c2ccc4cc5c(cc4c21)OCO5)OCO3` [sanguinarine Cl, sanguinarine] here?
The IC50 was over 100 µM.

Target: Sfp (Bacillus subtilis, UniProt P39135)
Experiment: SDS-PAGE fluorescent carrier protein labeling follow-up
Assay type: biochemical, B. subtilis
Conditions: gel analysis (Figure S22)

Sequence of Sfp (P39135 whole entry): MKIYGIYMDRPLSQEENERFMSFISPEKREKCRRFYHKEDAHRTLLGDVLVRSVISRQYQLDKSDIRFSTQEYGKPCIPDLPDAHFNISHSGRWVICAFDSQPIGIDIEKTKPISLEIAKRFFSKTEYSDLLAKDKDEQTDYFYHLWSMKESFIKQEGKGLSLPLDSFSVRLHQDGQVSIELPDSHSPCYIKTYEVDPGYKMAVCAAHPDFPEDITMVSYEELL

With `NC(N)=Nc1ccc2[nH]c3c(c2c1)C[C@@]1(O)[C@H]2Cc4ccc(O)c5c4[C@@]1(CCN2CC1CC1)[C@H]3O5.O=C(O)C(F)(F)F.O=C(O)C(F)(F)F` [guanidinyl-naltrindole] as the molecule, how does the “Effect on fluorescent labeling of the carrier protein substrate by SDS-PAGE” value (“Effect on fluorescent labeling” below) read?
The value was “increase fluorescent labeling”.

`CC(C)(C)c1ccc(S(=O)(=O)/C=C/C#N)cc1` [Bay 11-7085] was tested. Which “Effect on fluorescent labeling” value did it give?
The value was “increase fluorescent labeling”.

Which “Effect on fluorescent labeling” value does the source give for `C[n+]1cc2c3c(ccc2c2ccc4cc5c(cc4c21)OCO5)OCO3` [sanguinarine Cl, sanguinarine] here?
Its value is “inhibitory behavior”.
